Laboratory results taken from ChEMBL document CHEMBL3994622, “Design and synthesis of new RAF kinase-inhibiting antiproliferative quinoline derivatives. Part 2: Diarylurea derivatives” (Eur J Med Chem, 2017).

Tests used:
Assay type in all cases: functional
CCRF-CEM = test: Growth inhibition of human CCRF-CEM cells assessed as cell growth at 10 uM incubated for 48 hrs by sulforhodamine B assay relative to control; details: read-out: Activity
HL-60(TB) = test: Growth inhibition of human HL-60(TB) cells assessed as cell growth at 10 uM incubated for 48 hrs by sulforhodamine B assay relative to control; details: HL-60, 48 h, read-out: Activity
MOLT-4 [1] = test: Growth inhibition of human MOLT4 cells assessed as cell growth at 10 uM incubated for 48 hrs by sulforhodamine B assay relative to control; details: MOLT-4, 48 h, read-out: Activity
SR = test: Growth inhibition of human SR cells assessed as cell growth at 10 uM incubated for 48 hrs by sulforhodamine B assay relative to control; details: read-out: Activity
A549 = test: Growth inhibition of human A549/ATCC cells assessed as cell growth at 10 uM incubated for 48 hrs by sulforhodamine B assay relative to control; details: A549, 48 h, read-out: Activity
NCI-H226 = test: Growth inhibition of human NCI-H226 cells assessed as cell growth at 10 uM incubated for 48 hrs by sulforhodamine B assay relative to control; details: NCI-H226, 48 h, read-out: Activity
NCI-H23 = test: Growth inhibition of human NCI-H23 cells assessed as cell growth at 10 uM incubated for 48 hrs by sulforhodamine B assay relative to control; details: NCI-H23, 48 h, read-out: Activity
NCI-H460 = test: Growth inhibition of human NCI-H460 cells assessed as cell growth at 10 uM incubated for 48 hrs by sulforhodamine B assay relative to control; details: NCI-H460, 48 h, read-out: Activity
NCI-H522 = test: Growth inhibition of human NCI-H522 cells assessed as cell growth at 10 uM incubated for 48 hrs by sulforhodamine B assay relative to control; details: NCI-H522, 48 h, read-out: Activity
HCT-116 = test: Growth inhibition of human HCT116 cells assessed as cell growth at 10 uM incubated for 48 hrs by sulforhodamine B assay relative to control; details: HCT-116, 48 h, read-out: Activity
KM12 = test: Growth inhibition of human KM12 cells assessed as cell growth at 10 uM incubated for 48 hrs by sulforhodamine B assay relative to control; details: KM12, 48 h, read-out: Activity
SF-268 [2] = test: Growth inhibition of human SF268 cells assessed as cell growth at 10 uM incubated for 48 hrs by sulforhodamine B assay relative to control; details: SF-268, 48 h, read-out: Activity
SNB-19 = test: Growth inhibition of human SNB19 cells assessed as cell growth at 10 uM incubated for 48 hrs by sulforhodamine B assay relative to control; details: SNB-19, 48 h, read-out: Activity
M14 = test: Growth inhibition of human M14 cells assessed as cell growth at 10 uM incubated for 48 hrs by sulforhodamine B assay relative to control; details: M14, 48 h, read-out: Activity
UACC-62 = test: Growth inhibition of human UACC62 cells assessed as cell growth at 10 uM incubated for 48 hrs by sulforhodamine B assay relative to control; details: UACC-62, 48 h, read-out: Activity
IGROV-1 [3] = test: Growth inhibition of human IGROV1 cells assessed as cell growth at 10 uM incubated for 48 hrs by sulforhodamine B assay relative to control; details: IGROV-1, 48 h, read-out: Activity
OVCAR-5 = test: Growth inhibition of human OVCAR5 cells assessed as cell growth at 10 uM incubated for 48 hrs by sulforhodamine B assay relative to control; details: OVCAR-5, 48 h, read-out: Activity
SK-OV-3 = test: Growth inhibition of human SKOV3 cells assessed as cell growth at 10 uM incubated for 48 hrs by sulforhodamine B assay relative to control; details: SK-OV-3, 48 h, read-out: Activity
A498 = test: Growth inhibition of human A498 cells assessed as cell growth at 10 uM incubated for 48 hrs by sulforhodamine B assay relative to control; details: A498, 48 h, read-out: Activity
ACHN = test: Growth inhibition of human ACHN cells assessed as cell growth at 10 uM incubated for 48 hrs by sulforhodamine B assay relative to control; details: read-out: Activity
CAKI-1 = test: Growth inhibition of human Caki1 cells assessed as cell growth at 10 uM incubated for 48 hrs by sulforhodamine B assay relative to control; details: CAKI-1, 48 h, read-out: Activity
SN12C = test: Growth inhibition of human SN12C cells assessed as cell growth at 10 uM incubated for 48 hrs by sulforhodamine B assay relative to control; details: read-out: Activity
MDA-MB-231 = test: Growth inhibition of human MDA-MB-231 cells assessed as cell growth at 10 uM incubated for 48 hrs by sulforhodamine B assay relative to control; details: MDA-MB-231, 48 h, read-out: Activity
Hs-578T = test: Growth inhibition of human Hs 578T cells assessed as cell growth at 10 uM incubated for 48 hrs by sulforhodamine B assay relative to control; details: read-out: Activity
MDA-MB-468 = test: Growth inhibition of human MDA-MB-468 cells assessed as cell growth at 10 uM incubated for 48 hrs by sulforhodamine B assay relative to control; details: MDA-MB-468, 48 h, read-out: Activity
MOLT-4 [4] = test: Growth inhibition of human MOLT4 cells incubated for 48 hrs by sulforhodamine B assay; details: MOLT-4, 48 h
NCI-H322M = test: Growth inhibition of human NCI-H322M cells incubated for 48 hrs by sulforhodamine B assay
COLO 205 = test: Growth inhibition of human COLO205 cells incubated for 48 hrs by sulforhodamine B assay; details: COLO 205, 48 h
SF-268 [5] = test: Growth inhibition of human SF268 cells incubated for 48 hrs by sulforhodamine B assay; details: SF-268, 48 h
SK-MEL-28 = test: Growth inhibition of human SK-MEL-28 cells incubated for 48 hrs by sulforhodamine B assay; details: SK-MEL-28, 48 h
UACC-257 = test: Growth inhibition of human UACC257 cells incubated for 48 hrs by sulforhodamine B assay; details: UACC-257, 48 h
IGROV-1 [6] = test: Growth inhibition of human IGROV1 cells incubated for 48 hrs by sulforhodamine B assay; details: IGROV-1, 48 h
OVCAR-8 = test: Growth inhibition of human OVCAR8 cells incubated for 48 hrs by sulforhodamine B assay; details: OVCAR-8, 48 h
[7] = read-out: LC50 (the source's name)

COc1cc2cc(Oc3ccc(NC(=O)Nc4ccc(C(F)(F)F)cc4)cc3)c(C)nc2cc1OC
growth at 10 µM (CCRF-CEM): 68.5%
growth at 10 µM (HL-60(TB)): 75.2%
growth at 10 µM (MOLT-4 [1]): 61.9%
growth at 10 µM (SR): 59.6%
growth at 10 µM (A549): 32.4%
growth at 10 µM (NCI-H226): 20.9%
growth at 10 µM (NCI-H23): 79.3%
growth at 10 µM (NCI-H460): 42.8%
growth at 10 µM (NCI-H522): 63.2%
growth at 10 µM (HCT-116): 47.2%
growth at 10 µM (KM12): 64.4%
growth at 10 µM (SF-268 [2]): 79.3%
growth at 10 µM (SNB-19): 93.5%
growth at 10 µM (M14): 95.2%
growth at 10 µM (UACC-62): 69.2%
growth at 10 µM (IGROV-1 [3]): 71.9%
growth at 10 µM (OVCAR-5): 92.9%
growth at 10 µM (SK-OV-3): 38.8%
growth at 10 µM (A498): 90.5%
growth at 10 µM (ACHN): 56.1%
growth at 10 µM (CAKI-1): 70.4%
growth at 10 µM (SN12C): 72.2%
growth at 10 µM (MDA-MB-231): 80.9%
growth at 10 µM (Hs-578T): 70.9%
growth at 10 µM (MDA-MB-468): 40.1%

COc1cc2cc(Oc3ccc(NC(=O)Nc4ccc(Cl)c(C(F)(F)F)c4)cc3)c(C)nc2cc1OC
growth at 10 µM (CCRF-CEM): -17.6%
growth at 10 µM (HL-60(TB)): -40.6%
growth at 10 µM (MOLT-4 [1]): -27.9%
growth at 10 µM (SR): -32.5%
growth at 10 µM (A549): -17.2%
growth at 10 µM (NCI-H226): 4.49%
growth at 10 µM (NCI-H23): 3.46%
growth at 10 µM (NCI-H460): -19.8%
growth at 10 µM (NCI-H522): -43.6%
growth at 10 µM (HCT-116): -87.3%
growth at 10 µM (KM12): -16.4%
growth at 10 µM (SF-268 [2]): -10.2%
growth at 10 µM (SNB-19): 23.7%
growth at 10 µM (M14): -73.7%
growth at 10 µM (UACC-62): -51.5%
growth at 10 µM (IGROV-1 [3]): -7.69%
growth at 10 µM (OVCAR-5): 18%
growth at 10 µM (SK-OV-3): -4.09%
growth at 10 µM (A498): 10.4%
growth at 10 µM (ACHN): 13.6%
growth at 10 µM (CAKI-1): -8.92%
growth at 10 µM (SN12C): 13.2%
growth at 10 µM (MDA-MB-231): -50.6%
growth at 10 µM (Hs-578T): 2.5%
growth at 10 µM (MDA-MB-468): -42.7%
GI50 (MOLT-4 [4]): 1.14 µM
LC50 (MOLT-4 [4]): > 32.5 µM
TGI (MOLT-4 [4]): 5.49 µM
GI50 (NCI-H322M): 2.05 µM
TGI (NCI-H322M): 6.28 µM
CC50 (NCI-H322M; [7]): 16.3 µM
GI50 (COLO 205): 0.66 µM
TGI (COLO 205): 1.31 µM
CC50 (COLO 205; [7]): 2.59 µM
GI50 (SF-268 [5]): 1.55 µM
LC50 (50% lethal concentration) (SF-268 [5]): 22.6 µM
TGI (SF-268 [5]): 6.34 µM
GI50 (SK-MEL-28): 1.41 µM
TGI (SK-MEL-28): 5.45 µM
CC50 (SK-MEL-28; [7]): 14.4 µM
GI50 (UACC-257): 0.71 µM
TGI (UACC-257): 2.36 µM
CC50 (UACC-257; [7]): 19.6 µM
GI50 (IGROV-1 [6]): 2.34 µM
TGI (IGROV-1 [6]): 9.83 µM
CC50 (IGROV-1 [6]; [7]): > 32.5 µM
GI50 (OVCAR-8): 1.04 µM
TGI (OVCAR-8): 4.55 µM
CC50 (OVCAR-8; [7]): > 32.5 µM

COc1cc2cc(Oc3ccc(NC(=O)Nc4ccccc4)cc3)c(C)nc2cc1OC
growth at 10 µM (CCRF-CEM): 55.2%
growth at 10 µM (HL-60(TB)): 70.5%
growth at 10 µM (MOLT-4 [1]): 37.9%
growth at 10 µM (SR): 42.6%
growth at 10 µM (A549): 58.4%
growth at 10 µM (NCI-H226): 39.8%
growth at 10 µM (NCI-H23): 87.2%
growth at 10 µM (NCI-H460): 69%
growth at 10 µM (NCI-H522): 67.2%
growth at 10 µM (HCT-116): 42.6%
growth at 10 µM (KM12): 70.3%
growth at 10 µM (SF-268 [2]): 88.1%
growth at 10 µM (SNB-19): 94.8%
growth at 10 µM (M14): 93.7%
growth at 10 µM (UACC-62): 88.4%
growth at 10 µM (IGROV-1 [3]): 103%
growth at 10 µM (OVCAR-5): 99.7%
growth at 10 µM (SK-OV-3): 48.4%
growth at 10 µM (A498): 54%
growth at 10 µM (ACHN): 84.5%
growth at 10 µM (CAKI-1): 88.7%
growth at 10 µM (SN12C): 70.7%
growth at 10 µM (MDA-MB-231): 80%
growth at 10 µM (Hs-578T): 78%
growth at 10 µM (MDA-MB-468): 35.3%
